From patent US20070128217A1 (priority 2003, published 2007)

How the values were obtained:
[1] = system: rabbit serum obtained by immunizing a rabbit with the SARS-CoV strain Frankfurt 1; format: binding; parameters: Binding of a rabbit serum to linear peptides / Binding of a rabbit serum to looped peptides / Rabbit serum linear peptides / Rabbit serum looped peptides / Binding of a rabbit serum to linear peptides of protein N of SARS-CoV Urbani (Rabbit serum linear peptides) / Binding of a rabbit serum to looped/cyclic peptides of protein N of SARS-CoV Urbani (Rabbit serum looped peptides): unit not given here
[2] = system: control sera (pooled serum of ten healthy LUMC hospital workers; commercial negative donor pooled serum from the Dutch bloodbank); format: binding, human; parameters: Binding of Control serum LUMC to linear peptides / Binding of Control serum Blood-bank to linear peptides / Binding of Control serum LUMC to looped peptides / Binding of Control Serum Blood-Bank to Looped peptides / Binding of Control serum LUMC to linear peptides of the protein M of SARS-CoV Urbani / Binding of Control serum Blood-bank to linear peptides of the protein M of SARS-CoV Urbani / Binding of Control serum LUMC to looped peptides of the protein M of SARS-CoV Urbani / Binding of Control Serum Blood-Bank to Looped peptides of the protein M of SARS-CoV Urbani: unit not given here
[3] = system: recombinant human anti-SARS-CoV antibody 03-018; format: binding; parameters: Binding of antibody 03-018 to linear peptides of the N protein of SARS-CoV Urbani / Binding of antibody 03-018 to looped/cyclic peptides of the N protein of SARS-CoV Urbani: unit not given here
[4] = system: antibodies in sera from SARS patients (sera 1a, 1b, 2, 6, 37, 62, London, SARS-yellow, SARS-green); format: binding, human; parameters: Binding of serum 6 to linear peptides of protein X1 of SARS-CoV Urbani / Binding of serum 37 to linear peptides of protein X1 of SARS-CoV Urbani / Binding of serum 6 to looped/cyclic peptide (PEPSCAN-ELISA) / Binding of serum 37 to looped/cyclic peptide (PEPSCAN-ELISA) / Binding of serum 37 to looped/cyclic peptides of protein X1 of SARS-CoV Urbani / Binding of serum 6 to linear peptides of protein X2 / Binding of serum 37 to linear peptides of protein X2 / Binding of serum 37 to looped/cyclic peptides of protein X2 of SARS-CoV Urbani / Binding of serum 6 to linear peptides of protein M of SARS-CoV Urbani / Binding of serum 37 to linear peptides of protein M of SARS-CoV Urbani / Binding of serum 6 to looped/cyclic peptides of protein M of SARS-CoV Urbani / Binding of serum 37 to looped/cyclic peptides of protein M of SARS-CoV Urbani / Binding of serum 6 to linear peptides of protein X3 of SARS-CoV Urbani / Binding of serum 37 to linear peptides of protein X3 of SARS-CoV Urbani / Binding of serum 37 to looped/cyclic peptides of protein X3 of SARS-CoV Urbani / Binding of serum 6 to linear peptides of protein X4 of SARS-CoV Urbani / Binding of serum 37 to linear peptides of protein X4 of SARS-CoV Urbani / Binding of serum 37 to looped/cyclic peptides of protein X4 of SARS-CoV Urbani / Binding of serum 6 to linear peptides of protein X5 of SARS-CoV Urbani / Binding of serum 37 to linear peptides of protein X5 of SARS-CoV Urbani / Binding of serum 37 to looped/cyclic peptides of protein X5 of SARS-CoV Urbani / Binding of serum 6 to linear peptides of protein N of SARS-CoV Urbani / Binding of serum 37 to linear peptides of protein N of SARS-CoV Urbani / Binding of serum 6 to linear peptide (PEPSCAN-ELISA) / Binding of serum 1a to looped/cyclic peptides of protein N of SARS-CoV Urbani / Binding of serum 1b to looped/cyclic peptides of protein N of SARS-CoV Urbani / Binding of serum 2 to looped/cyclic peptides of protein N of SARS-CoV Urbani / Binding of serum 6 to looped/cyclic peptides of protein N of SARS-CoV Urbani / Binding of serum 37 to looped/cyclic peptides of protein N of SARS-CoV Urbani / Binding of serum 62 to looped/cyclic peptides of protein N of SARS-CoV Urbani / Binding of serum London to looped/cyclic peptides of protein N of SARS-CoV Urbani / Binding of serum SARS-green to looped/cyclic peptides of protein N of SARS-CoV Urbani: unit not given here

Sequence | Binding of a rabbit serum to linear peptides of protein N of SARS-CoV Urbani (Rabbit serum linear peptides) [1] | Binding of a rabbit serum to looped/cyclic peptides of protein N of SARS-CoV Urbani (Rabbit serum looped peptides) [1] | Binding of antibody 03-018 to linear peptides of the N protein of SARS-CoV Urbani [3] | Binding of antibody 03-018 to looped/cyclic peptides of the N protein of SARS-CoV Urbani [3] | Binding of serum 1a to linear peptides of protein N of SARS-CoV Urbani [4] | Binding of serum 1a to looped/cyclic peptides of protein N of SARS-CoV Urbani [4] | Binding of serum 1b to linear peptides of protein N of SARS-CoV Urbani [4] | Binding of serum 1b to looped/cyclic peptides of protein N of SARS-CoV Urbani [4] | Binding of serum 2 to linear peptides of protein N of SARS-CoV Urbani [4] | Binding of serum 2 to looped/cyclic peptides of protein N of SARS-CoV Urbani [4] | Binding of serum 6 to linear peptides of protein N of SARS-CoV Urbani [4] | Binding of serum 6 to looped/cyclic peptides of protein N of SARS-CoV Urbani [4] | Binding of serum 37 to linear peptides of protein N of SARS-CoV Urbani [4] | Binding of serum 37 to looped/cyclic peptides of protein N of SARS-CoV Urbani [4] | Binding of serum 62 to linear peptides of protein N of SARS-CoV Urbani [4] | Binding of serum 62 to looped/cyclic peptides of protein N of SARS-CoV Urbani [4] | Binding of serum London to linear peptides of protein N of SARS-CoV Urbani [4] | Binding of serum London to looped/cyclic peptides of protein N of SARS-CoV Urbani [4] | Binding of serum SARS-green to linear peptides of protein N of SARS-CoV Urbani [4] | Binding of serum SARS-green to looped/cyclic peptides of protein N of SARS-CoV Urbani [4] | other results
QDLIRQGTDYKHWPQ | 0.1 | 0.2 | 0.1 | 0.2 | 0.2 | 0.3 | 0.1 | 0.2 | 0.2 | 0.3 | 0.2 | 0.2 | 0.6 | 0.5 | 0.5 | 0.4 | 0.4 | 0.4 | 0.2 | 0.2 | Binding of Control Serum Blood-Bank to Looped peptides [2]: 0.6; Binding of Control serum Blood-bank to linear peptides [2]: 0.7; Binding of Control serum LUMC to linear peptides [2]: 0.6; Binding of Control serum LUMC to looped peptides [2]: 0.5; Binding of serum SARS-yellow to linear peptides of protein N of SARS-CoV Urbani [4]: 0.4; Binding of serum SARS-yellow to looped/cyclic peptides of protein N of SARS-CoV Urbani [4]: 0.3
SASAFFGMSRIGMEV | 0.1 | 0.6 | 0.1 | 0.2 | 0.3 | 0.5 | 0.2 | 0.3 | 0.2 | 0.6 | 0.2 | 0.5 | 0.7 | 0.8 | 0.6 | 0.6 | 0.5 | 1.6 | 0.4 | 0.4 | Control Serum Blood-Bank Looped peptides [2]: 0.7; Control serum Blood-bank linear peptides [2]: 0.7; Control serum LUMC linear peptides [2]: 0.6; Control serum LUMC looped peptides [2]: 0.7; Binding of serum SARS-yellow to linear peptides of protein N of SARS-CoV Urbani [4]: 0.7; Binding of serum SARS-yellow to looped/cyclic peptides of protein N of SARS-CoV Urbani [4]: 0.9
PQRQKKQPTVTLLPA | 0.2 | 0.7 | 0.1 | 0.3 | 0.3 | – | 0.2 | – | 0.3 | – | 0.2 | – | 0.7 | – | 0.7 | – | 0.5 | – | 0.5 | – | Control Serum Blood-Bank Looped peptides [2]: 0.9; Control serum Blood-bank linear peptides [2]: 0.8; Control serum LUMC linear peptides [2]: 0.7; Control serum LUMC looped peptides [2]: 0.7; Binding of serum SARS-yellow to linear peptides of protein N of SARS-CoV Urbani [4]: 0.6; Recognition of the peptide by sera of SARS-CoV infected individuals, and form (linear, looped/cyclic) in which it is recognized [4]: recognized in looped/cyclic form
QGNFGDQDLIRQGTD | 0.2 | 0.4 | 0.1 | 0.2 | – | 0.4 | – | 0.3 | – | 0.3 | – | 0.2 | – | 0.6 | – | 0.5 | – | 0.4 | – | 0.7 | Binding of Control Serum Blood-Bank to Looped peptides [2]: 0.5; Binding of Control serum Blood-bank to linear peptides [2]: 0.6; Binding of Control serum LUMC to linear peptides [2]: 0.7; Binding of Control serum LUMC to looped peptides [2]: 0.6; Binding of serum 1a to linear peptide (PEPSCAN-ELISA) [4]: 0.3; Binding of serum 1b to linear peptide (PEPSCAN-ELISA) [4]: 0.2; Binding of serum 2 to linear peptide (PEPSCAN-ELISA) [4]: 0.2; Binding of serum 6 to linear peptide (PEPSCAN-ELISA) [4]: 0.2; Binding of serum 37 to linear peptide (PEPSCAN-ELISA) [4]: 0.8; Binding of serum 62 to linear peptide (PEPSCAN-ELISA) [4]: 0.8; Binding of serum London to linear peptide (PEPSCAN-ELISA) [4]: 0.5; Binding of serum SARS-green to linear peptide (PEPSCAN-ELISA) [4]: 0.6; Binding of serum SARS-yellow to linear peptide (PEPSCAN-ELISA) [4]: 0.8; Binding of serum SARS-yellow to looped/cyclic peptides of protein N of SARS-CoV Urbani [4]: 0.6
ARPKQRRPQGLPNNT | 0.2 | 0.4 | 0.1 | 0.2 | 0.2 | 0.2 | 0.1 | 0.1 | 0.3 | 0.4 | 0.2 | 0.2 | 0.7 | 0.5 | 0.6 | 0.5 | 0.5 | 0.3 | 0.5 | 0.2 | Binding of Control Serum Blood-Bank to Looped peptides [2]: 0.6; Binding of Control serum Blood-bank to linear peptides [2]: 0.6; Binding of Control serum LUMC to linear peptides [2]: 0.6; Binding of Control serum LUMC to looped peptides [2]: 0.5; Binding of serum SARS-yellow to linear peptides of protein N of SARS-CoV Urbani [4]: 0.5; Binding of serum SARS-yellow to looped/cyclic peptides of protein N of SARS-CoV Urbani [4]: 0.2
